Experiment [1] has as its target T1, human SLC6A19 and TMEM27 (Homo sapiens, UniProt Q695T7).
T1 construct: expressed in transfected cells
T1 sequence (Q695T7 1-634): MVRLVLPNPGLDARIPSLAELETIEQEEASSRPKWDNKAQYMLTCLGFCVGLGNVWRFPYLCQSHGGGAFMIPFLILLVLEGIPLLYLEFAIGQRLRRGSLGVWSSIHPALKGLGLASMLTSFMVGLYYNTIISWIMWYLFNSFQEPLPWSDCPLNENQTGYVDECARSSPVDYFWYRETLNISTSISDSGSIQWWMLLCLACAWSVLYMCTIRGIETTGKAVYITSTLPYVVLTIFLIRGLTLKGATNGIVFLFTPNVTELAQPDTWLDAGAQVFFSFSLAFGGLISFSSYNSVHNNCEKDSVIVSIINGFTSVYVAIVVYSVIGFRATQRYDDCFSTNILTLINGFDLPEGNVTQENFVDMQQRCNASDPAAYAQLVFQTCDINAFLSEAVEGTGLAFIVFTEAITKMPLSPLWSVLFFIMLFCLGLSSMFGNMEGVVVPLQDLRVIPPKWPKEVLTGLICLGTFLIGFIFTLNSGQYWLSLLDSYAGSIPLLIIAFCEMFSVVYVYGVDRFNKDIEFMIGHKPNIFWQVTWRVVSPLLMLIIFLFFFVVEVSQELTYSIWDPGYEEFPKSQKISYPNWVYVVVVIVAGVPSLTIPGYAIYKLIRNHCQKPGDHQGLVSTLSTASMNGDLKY
T1 sequence (Q9HBJ8 15-222 partner): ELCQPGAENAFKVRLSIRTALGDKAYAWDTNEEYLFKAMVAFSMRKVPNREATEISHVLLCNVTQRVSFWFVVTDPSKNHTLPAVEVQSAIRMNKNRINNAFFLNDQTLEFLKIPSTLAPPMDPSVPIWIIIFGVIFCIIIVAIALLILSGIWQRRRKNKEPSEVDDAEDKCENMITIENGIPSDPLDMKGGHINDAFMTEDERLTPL
The experiment can be described thus: Radiolabelled (3H) leucine uptake in CHO cells with doxycycline-inducible expression of human SLC6A19 and TMEM27 (Example B-1). Conditions: CHO cells with doxycycline-inducible expression of human SLC6A19 and TMEM27, read-out: SLC6A19_Radioligand Uptake Assay IC50. In kind it is cell-based. The gist of the method:
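CHO cells were induced with doxycycline for 18 h at 37 °C, washed in HBSS, then exposed to compounds for 1 h: 8-point, 3-fold dilutions in duplicate, 0.5% DMSO final. Uptake measured by scintillation counting after 2 h shaking. Activity normalized with positive control as 0% and DMSO as 100%.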

Experiment [2] has as its target T1, human SLC6A19 and TMEM27. The experiment can be described thus: 13C6,15N-isoleucine uptake in CHO cells with doxycycline-inducible expression of human SLC6A19 and TMEM27, RapidFire mass spectrometry (Example B-2). Conditions: read-out: SLC6A19_RapidFire Uptake Assay IC50. Type of experiment: cell-based. The gist of the method:
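CHO cells induced overnight with doxycycline to express human SLC6A19 plus TMEM27; 20 min preincubation with compound (10-point 2-fold series, duplicate) at 37 °C in HEPES buffer pH 7.2, then 20 min with 13C6,15N-isoleucine. Intracellular label quantified by RapidFire MS against 13C-leucine standard; positive control defined 100% inhibition.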

Each structure is given as a SMILES string.

Consider `CC(=O)NCc1cc2cc(F)c(OCc3cc(C)no3)cc2[nH]1` [Compound 223, N-((5-fluoro-6-((3-methylisoxazol-5-yl)methoxy)-1H-indol-2-yl)methyl)acetamide], for which the IC50 in experiment [1] came out at 203 nM; in experiment [2] it was 796 nM.
For the compound `CC(=O)NCc1cc2cc(F)c(OCc3cnn(C)n3)cc2[nH]1` [Compound 222, N-((5-fluoro-6-((2-methyl-2H-1,2,3-triazol-4-yl)methoxy)-1H-indol-2-yl)methyl)acetamide], the figures for the half-maximal inhibitory concentration (IC50) in experiment [1] and in experiment [2] were 3170 nM and 6610 nM, respectively.
For `CC1(C(=O)NCc2cc3cc(Cl)c(OCc4ccc(F)nc4)cc3[nH]2)CC1` [Compound 31, N-((5-chloro-6-((6-fluoropyridin-3-yl)methoxy)-1H-indol-2-yl)methyl)-1-methylcyclopropane-1-carboxamide] the same measures were 419 nM and 504 nM.
For `CC1(C(=O)NCc2cc3cc(Cl)c(OCc4ccns4)cc3[nH]2)CC1` [Compound 322, N-((5-chloro-6-(isothiazol-5-ylmethoxy)-1H-indol-2-yl)methyl)-1-methylcyclopropane-1-carboxamide] the same measures were 275 nM and 138 nM.
For `CNC(=O)NCc1cc2cc(Cl)c(OCc3cscn3)cc2[nH]1` [Compound 209, 1-((5-chloro-6-(thiazol-4-ylmethoxy)-1H-indol-2-yl)methyl)-3-methylurea] the same measures were 130 nM and 117 nM.
On to `Cc1cc2cc(CNC(=O)N3CCCC3)[nH]c2cc1OCc1cscn1` [Compound 531, N-((5-methyl-6-(thiazol-4-ylmethoxy)-1H-indol-2-yl)methyl)pyrrolidine-1-carboxamide], for which the concentration for half-maximal inhibition (IC50) was 295 nM in experiment [1] and 164 nM in experiment [2].
For `CC1(C(=O)NCc2cc3cc(Cl)c(OCc4cc(C5CC5)on4)cc3[nH]2)CC1` [Compound 100, N-((5-chloro-6-((5-cyclopropylisoxazol-3-yl)methoxy)-1H-indol-2-yl)methyl)-1-methylcyclopropane-1-carboxamide] the same measures were 201 nM and 397 nM.
As for `O=C(NCc1cc2cc(Cl)c(NCc3cscn3)cc2[nH]1)N1CCC1` [Compound 472, N-((5-chloro-6-((thiazol-4-ylmethyl)amino)-1H-indol-2-yl)methyl)azetidine-1-carboxamide], the half-inhibitory concentration (IC50) in experiment [1] is 304 nM; in experiment [2], 397 nM.
Consider `CC(=O)NCc1cc2cc(F)c(NCc3ccon3)cc2[nH]1` [Compound 228, N-((5-fluoro-6-((isoxazol-3-ylmethyl)amino)-1H-indol-2-yl)methyl)acetamide], for which the IC50 in experiment [1] was found to be 3170 nM; in experiment [2], 11200 nM.
For `CC1(C(=O)NCc2cc3cc(F)c(NCc4cscn4)cc3[nH]2)CC1` [Compound 523, N-((5-fluoro-6-((thiazol-4-ylmethyl)amino)-1H-indol-2-yl)methyl)-1-methylcyclopropane-1-carboxamide] the same measures were 208 nM and 239 nM.
For `O=C(NCc1cc2cc(Cl)c(OCc3cscn3)cc2[nH]1)N1CCC1` [Compound 81, N-((5-chloro-6-(thiazol-4-ylmethoxy)-1H-indol-2-yl)methyl)azetidine-1-carboxamide] the same measures were 150 nM and 166 nM.
On to `O=C(NCc1cc2cc(C(F)(F)F)c(OCc3cscn3)cc2[nH]1)N1CCC1` [Compound 478, N-((6-(thiazol-4-ylmethoxy)-5-(trifluoromethyl)-1H-indol-2-yl)methyl)azetidine-1-carboxamide], for which the IC50 in experiment [1] worked out at 416 nM; in experiment [2] it was 172 nM.
For `CC1(C(=O)NCc2cc3ccc(OCc4cc(C(F)F)on4)cc3[nH]2)CC1` [Compound 97, N-((6-((5-(difluoromethyl)isoxazol-3-yl)methoxy)-1H-indol-2-yl)methyl)-1-methylcyclopropane-1-carboxamide] the same measures were 421 nM and 909 nM.
`Cc1cc2cc(CNC(=O)N3CCCC3)[nH]c2cc1OCc1ccon1` [Compound 533, N-((6-(isoxazol-3-ylmethoxy)-5-methyl-1H-indol-2-yl)methyl)pyrrolidine-1-carboxamide]: the IC50 in experiment [1] was found to be 332 nM; in experiment [2] it was 330 nM.
For the compound `O=C(NCc1cc2cc(F)c(CCc3ccon3)cc2[nH]1)N1CCC1` [Compound 602, N-((5-fluoro-6-(2-(isoxazol-3-yl)ethyl)-1H-indol-2-yl)methyl)azetidine-1-carboxamide], the figures for the IC50 in experiment [1] and in experiment [2] were 820 nM and 609 nM, respectively.
For `CC(C)C(=O)NCc1cc2cc(Cl)c(OCc3ccon3)cc2[nH]1` [Compound 132, N-((5-chloro-6-(isoxazol-3-ylmethoxy)-1H-indol-2-yl)methyl)isobutyramide] the same measures were 136 nM and 103 nM.
`CC(=O)NCc1cc2cc(Cl)c(OCc3cccc(F)n3)cc2[nH]1` [Compound 225, N-((5-chloro-6-((6-fluoropyridin-2-yl)methoxy)-1H-indol-2-yl)methyl)acetamide]: the figures for the IC50 in experiment [1] and in experiment [2] were 156 nM and 80.8 nM, respectively.
In the case of `CC1(C(=O)NCc2cc3cc(F)c(OCc4cccc(F)n4)cc3[nH]2)CC1` [Compound 327, N-((5-fluoro-6-((6-fluoropyridin-2-yl)methoxy)-1H-indol-2-yl)methyl)-1-methylcyclopropane-1-carboxamide], the figures for the 50% inhibitory concentration (IC50) in experiment [1] and in experiment [2] were 223 nM and 89.1 nM, respectively.
For `CC(C)C(=O)NCc1cc2cc(F)c(OCc3cscn3)cc2[nH]1` [Compound 135, N-((5-fluoro-6-(thiazol-4-ylmethoxy)-1H-indol-2-yl)methyl)isobutyramide] the same measures were 82 nM and 49 nM.
On to `CC1(C(=O)NCc2cc3cc(CC(F)(F)F)c(OCc4ccon4)cc3[nH]2)CC1` [Compound 649, N-((6-(isoxazol-3-ylmethoxy)-5-(2,2,2-trifluoroethyl)-1H-indol-2-yl)methyl)-1-methylcyclopropane-1-carboxamide], for which the 50% inhibitory concentration (IC50) in experiment [1] turned out to be 326 nM; in experiment [2], 217 nM.
Regarding `O=C(NCc1cc2cc(Cl)c(OCc3ccon3)cc2[nH]1)C1CC1` [Compound 131, N-((5-chloro-6-(isoxazol-3-ylmethoxy)-1H-indol-2-yl)methyl)cyclopropanecarboxamide], the figures for the IC50 in experiment [1] and in experiment [2] were 74 nM and 50 nM, respectively.
Regarding `Cn1ncc(COc2cc3[nH]c(CNC(=O)C4CC4)cc3cc2Cl)n1` [Compound 498, N-((5-chloro-6-((2-methyl-2H-1,2,3-triazol-4-yl)methoxy)-1H-indol-2-yl)methyl)cyclopropanecarboxamide], the IC50 in experiment [1] came to 159 nM; in experiment [2], 90.2 nM.
For the compound `CC1(C(=O)NCc2cc3cc(Cl)c(OCc4cncc(F)c4)cc3[nH]2)CC1` [Compound 36, N-((5-chloro-6-((5-fluoropyridin-3-yl)methoxy)-1H-indol-2-yl)methyl)-1-methylcyclopropane-1-carboxamide], the half-inhibitory concentration (IC50) amounted to 716 nM in experiment [1] and 316 nM in experiment [2].
On to `Cc1cncc(COc2cc3[nH]c(CNC(=O)C4(C)CC4)cc3cc2Cl)c1` [Compound 23, N-((5-chloro-6-((5-methylpyridin-3-yl)methoxy)-1H-indol-2-yl)methyl)-1-methylcyclopropane-1-carboxamide], for which the values for the 50% inhibitory concentration (IC50) in experiment [1] and in experiment [2] were 1430 nM and 502 nM, respectively.
For the compound `COC(=O)NCc1cc2cc(Cl)c(OCc3cscn3)cc2[nH]1` [Compound 624, methyl ((5-chloro-6-(thiazol-4-ylmethoxy)-1H-indol-2-yl)methyl)carbamate], the half-inhibitory concentration (IC50) in experiment [1] was 104 nM; in experiment [2] it was 30.9 nM.
Turning to `Cc1nc(COc2cc3[nH]c(CNC(=O)C4(C)CC4)cc3cc2F)co1` [Compound 547, N-((5-fluoro-6-((2-methyloxazol-4-yl)methoxy)-1H-indol-2-yl)methyl)-1-methylcyclopropane-1-carboxamide], the 50% inhibitory concentration (IC50) in experiment [1] is 363 nM; in experiment [2] it was 314 nM.
As to `CC1CN(C(=O)NCc2cc3cc(F)c(OCc4ccon4)cc3[nH]2)C1` [Compound 389, N-((5-fluoro-6-(isoxazol-3-ylmethoxy)-1H-indol-2-yl)methyl)-3-methylazetidine-1-carboxamide], the IC50 in experiment [1] is 353 nM; in experiment [2] it was 485 nM.

By IC50 is commonly meant the concentration at which inhibition is half-maximal.
